Assay results published in patent US20220396567A1, “SUBSTITUTED PYRIMIDINE FOR THE TREATMENT AND PROPHYLAXIS OF HEPATITIS B VIRUS INFECTION” (Hoffmann-La Roche Inc., priority 2019, published 2022).

System: HBV
Experiment: Cryopreserved primary human hepatocytes (PHH) HBV infection assay, extracellular HBsAg by CLIA
Type: cell-based
Conditions: Hepatitis B virus, Hepatocyte, 216 h; HBV-infected cryopreserved PHH; extracellular HBsAg at 9 days post-compound treatment; 4 parameter logistic curve fit
Experimental: This assay is used to confirm the anti-HBV effect of the compounds in HBV PHH infection assay. Cryopreserved PHH (BioreclamationIVT, Lot YJM) was thawed at 37° C. and gently transferred into pre-warmed InVitroGRO HT medium (BioreclamationIVT, Cat. S03317). The mixture was centrifuged at 70 relative centrifugal force (RCF) for 3 min at RT, and the supernatant was discarded. Pre-warmed InVitroGRO CP medium (BioreclamationIVT, Cat #S03316) was added to the cell pellet to gently re-suspend cells. The cells were seeded at the density of 5.8×10^4 cells per well to collagen I coated 96-well plate (Gibco, Cat. A1142803) with the InVitroGRO CP medium. All plates were incubated at 37° C. with 5% CO2 and 85% humidity.
At 20 hrs after plating, the medium was changed to PHH culture medium (Dulbecco's Modified Eagle Medium (DMEM)/F12 (1:1) (Gibco, Cat. 11320-033), 10% fetal bovine serum (Gibco Cat. 10099141), 100 U/mL penicillin, 100 μg/mL streptomycin (Gibco, Cat. 151401-122), […] (Invitrogen Cat. PHG0311L), 20 ng/mL dexamethasone (Sigma, Cat. D4902) and 250 ng/mL human recombinant insulin (Gibco, Cat. 12585-014)). And the cells were incubated at 37° C. with 5% CO2 and 85% humidity for 4 hrs. The medium was then changed to pre-warmed PHH culture medium containing 4% polyethylene glycol (PEG) MW8000 (Sigma, Cat. P1458-50 ML) and 1% DMSO (Sigma, Cat. D2650). 5.8×10^6 genomic equivalents of HBV were added into the medium.
At 24 hrs post-infection, the cells were gently washed with PBS and refreshed with PHH culture medium supplemented with 1% DMSO, and 0.25 mg/mL Matrix gel (Corning, Cat. 356237) at 200 μL per well. All plates were immediately placed in at 37° C. CO2 incubator.
24 hrs later, serial dilutions of compounds made with DMSO were further diluted with the same culture medium (PHH culture medium supplemented with 1% DMSO and 0.25 mg/mL Matrix gel as described above) before they were added to the cells to reach desired final compound concentrations and 1% DMSO concentration. The medium containing the compounds were refreshed every three days.
At 9 days post-compound treatment, extracellular HBsAg level were measured with Chemiluminescence Immuno Assay (CLIA) kit (Autobio, HBsAg Quantitative CLIA).
HBsAg IC50 was derived from the dose-response curve using 4 parameter logistic curve fit method. The compounds of formula (I) have HBsAg IC50<20 μM, particularly <1 μM.

Structure (SMILES)	IC50
CCOC(=O)c1c(NCc2c(Br)ccc(OC)c2OC)nc(C(C)C)nc1-c1ccco1 [Example 62, Ethyl 4-[(6-bromo-2,3-dimethoxy-phenyl)methylamino]-6-(2-furyl)-2-isopropyl-pyrimidine-5-carboxylate]	10.2 µM
O=C(O)c1c(NCc2cccc(C(F)(F)F)c2)nc(N2CC3(CCC3)C2)nc1-c1ccco1 [Example 48, 2-(2-azaspiro[3.3]heptan-2-yl)-4-(2-furyl)-6-[[3-(trifluoromethyl)phenyl]methylamino]pyrimidine-5-carboxylic Acid]	6.37 µM
CC(Nc1cc(-c2ccco2)nc(N(C)C)n1)c1cccc(C(F)(F)F)c1 (stereo not drawn) [Example 32, 6-(2-furyl)-N2,N2-dimethyl-N4-[1-[3-(trifluoromethyl)phenyl]ethyl]pyrimidine-2,4-diamine]	3.49 µM
COc1ccccc1CNc1nc(N)nc(-c2ccco2)c1C(=O)O [Example 40, 2-amino-4-(2-furyl)-6-[(2-methoxyphenyl)methylamino]pyrimidine-5-carboxylic Acid]	6.67 µM
CC(Nc1nc(N)nc(-c2ccco2)c1C#N)c1ccccc1 (stereo not drawn) [Example 1, 2-amino-4-(2-furyl)-6-(1-phenylethylamino)pyrimidine-5-carbonitrile]	5.93 µM
Nc1nc(NCc2ccc(Cl)cc2)c(C(=O)O)c(-c2ccco2)n1 [Example 37, 2-amino-4-[(4-chlorophenyl)methylamino]-6-(2-furyl)pyrimidine-5-carboxylic Acid]	2.93 µM
COc1nc(NC(C)c2cccc(C(F)(F)F)c2)cc(-c2ccco2)n1 (stereo not drawn) [Example 34, 6-(2-furyl)-2-methoxy-N-[1-[3-(trifluoromethyl)phenyl]ethyl]pyrimidin-4-amine]	3.49 µM
CS(=O)(=O)c1ccccc1C1(Nc2nc(N)nc(-c3ccco3)c2C#N)CC1 [Example 7, 2-amino-4-(2-furyl)-6-[[1-(2-methylsulfonylphenyl)cyclopropyl]amino]pyrimidine-5-carbonitrile]	1.78 µM
Cc1nc(NC2(c3ccccc3S(C)(=O)=O)CC2)c(C#N)c(-c2ccco2)n1 [Example 22, 4-(2-furyl)-2-methyl-6-[[1-(2-methylsulfonylphenyl)cyclopropyl]amino]pyrimidine-5-carbonitrile]	2.73 µM
CCCNc1nc(NCc2cccc(C(F)(F)F)c2)c(C#N)c(-c2ccco2)n1 [Example 15, 4-(2-furyl)-2-(propylamino)-6-[[3-(trifluoromethyl)phenyl]methylamino]pyrimidine-5-carbonitrile]	3.01 µM
CCOC(=O)c1c(NCc2cccc(C(F)(F)F)c2)nc(N2CC3(CCC3)C2)nc1-c1ccco1 [Example 47, Ethyl 2-(2-azaspiro[3.3]heptan-2-yl)-4-(2-furyl)-6-[[3-(trifluoromethyl)phenyl]methylamino]pyrimidine-5-carboxylate]	3.26 µM
CC(C)Oc1ccc(CNc2nc(N)nc(-c3ccco3)c2C#N)cc1Br [Example 2, 2-amino-4-[(3-bromo-4-isopropoxy-phenyl)methylamino]-6-(2-furyl)pyrimidine-5-carbonitrile]	3.28 µM
